Assay results from publication PMC6505199, “In vitro characterization of odorranalectin for peptide-based drug delivery across the blood–brain barrier” (BMC Neuroscience, 2019).

Tests used:
[1] = design: method as in PMID 18584053; conditions: cited from earlier work
[2] = BSA-conjugated monosaccharides and cell-based assays; relative to L-fucose; cited from earlier work
Excerpt: Previous studies reported the potential of lectins as drug carriers to specific sites of action based on their ability to selectively bind to specific sugar moieties of targeted cells. In addition, lectins could promote drug targeting into or across the cell barriers through vesicular transport. […] As also shown in Fig. 4, it is quite evident that the internalized OL is stable at all concentration tested further supporting the notion that this peptide is likely internalized into the cellular endosome but not the lysosomes.

[3] = tested on: hCMEC/D3 cells; assay: Cellular uptake/internalization of FAM-labelled peptide (lysate fluorescence normalized to protein; fluorescence imaging); assay type: in vitro ADME, human; conditions: 3 h
Method: All experiments were performed on human brain microvascular endothelial cell line (hCMEC/D3; Millipore Sigma, Massachusetts, US, cat# SCC066), an established and well characterized model of human BBB in vitro [11, 15, 16]. Cells (2.5 × 10^3/cm^2; passages 29–32) were cultured on sterile flasks, 96-well plates (for cell viability) and chamber slides (for immunofluorescence imaging) previously coated with Matrigel in HEPES buffered basal endothelial medium (EBM2) supplemented with various growth factors and 5% FBS using Lonza EGM2 MV BulletKit™ [15]. Following 80–90% confluence, cells were subjected to experimental conditions as listed below with serum concentration reduced to 1% FBS. Culture medium’s composition was adjusted (EBM2 medium buffered with HEPES and 1% BSA with no growth factors) to determine the effects of pH and serum (%; protein binding) on the cellular uptake of FAM-OL peptide. Basic pH was maintained with addition of 1 N sodium hydroxide to the medium, while acidic pH was established by addition of phosphoric acid. Cells were lysed with RIPA buffer at the end of treatment with OL peptide and the florescence intensity was measured using BioTek Synergy2 Multimode microplate reader using cellular lysates from cells treated with 0.1% DMSO as controls at 490/520 nm. […]

[4] = tested on: mice; design: method as in PMID 18584053; conditions: cited from earlier work

Substance: odorranalectin [OL]
- Immunogenicity [1]: low immunogenicity
- Binding to N-acetyl-d-galactosamine [2]: to a lesser degree
- Binding to galactose [2]: to a lesser degree
- Concentration dependence of cellular uptake ([3]; hCMEC/D3, 10-100 µg/mL, 37 °C, media 1% FBS, 0.1% DMSO, fluorescence imaging / lysate fluorescence 490/520 nm normalized per µg protein (BCA), N = 4-5): increased linearly
- Cellular uptake compared to scramble peptide at identical concentrations ([3]; hCMEC/D3, 37 °C, 1% FBS, total cell lysate fluorescence normalized per µg protein, side by side, P < 0.01): two to threefolds higher
- Toxicity profile in mice [4]: low toxicity profile
